Measurements: patent publication US8163781B2, “Bi-aryl aminotetralines” (Hoffman-La Roche Inc., priority 2008, dated 2012)

These compounds were tested against T1, human CRTH2 (Homo sapiens, UniProt Q9Y5Y4) (assay: Human CRTH2 Receptor Binding Assay). Conditions: whole cell binding, CHO-K1 cells expressing human CRTH2, 20 nM [3H]ramatroban as competing radioligand.
T1 construct: expressed in transfected cells
T1 sequence (Q9Y5Y4 1-395): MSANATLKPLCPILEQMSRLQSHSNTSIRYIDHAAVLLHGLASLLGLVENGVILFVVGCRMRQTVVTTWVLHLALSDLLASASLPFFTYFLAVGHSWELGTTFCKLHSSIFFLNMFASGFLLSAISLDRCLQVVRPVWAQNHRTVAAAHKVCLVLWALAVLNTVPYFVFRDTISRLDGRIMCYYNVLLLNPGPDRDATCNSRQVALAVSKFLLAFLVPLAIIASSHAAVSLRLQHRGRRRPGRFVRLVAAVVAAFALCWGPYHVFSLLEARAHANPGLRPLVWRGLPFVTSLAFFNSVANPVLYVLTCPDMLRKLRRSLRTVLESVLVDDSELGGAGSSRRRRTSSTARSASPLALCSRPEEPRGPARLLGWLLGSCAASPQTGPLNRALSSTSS
Text: A whole cell receptor binding assay using [^3H]ramatroban as the competing radioactive ligand was employed to evaluate the compound binding activity to human CRTH2. The radioactive ligand [^3H]ramatroban was synthesized according to Sugimoto et. al. (Eur. J. Pharmacol. 524, 30-37, 2005) to a specific activity of 42 Ci/mmol.
A cell line stably expressing human CRTH2 was established by transfecting CHO-K1 cells with two mammalian expression vectors that harbored human CRTH2 and G-alpha16 cDNAs, respectively, using FuGene® 6 transfection reagent (from Roche). Stable clones expressing CRTH2 were selected by staining each clone with BM16 (BD Pharmingen™ from BD Biosciences, a division of Becton, Dickinson and Company), which is a rat monoclonal antibody to human CRTH2. The cells were maintained as monolayer cultures in Ham's F-12 medium containing 10% fetal bovine serum, 100 units/mL penicillin, 100 μg/mL streptomycin, 2 mM glutamine, 0.5 mg/mL G418 (geneticin) for CRTH2, and 0.2 mg/mL hygromycin-B (for G-alpha 16). For whole cell receptor binding assay, the monolayer cells were rinsed once with PBS (phosphate buffered saline), dissociated using ethylenediaminetetraacetate (Versene™ EDTA from the Lonza Inc.), and suspended in PBS containing 10 mM MgCl2 and 0.06% BSA (bovine serum albumin) at 1.5×10^6 cells/mL.
The binding reactions (0.2 mL) were performed in 96-well plates at room temperature in PBS containing 1.5×10^5 cells, 10 mM MgCl2, 0.06% BSA, 20 nM [^3H]ramatroban, and test compound at various concentrations. After 1 hour of binding reactions, the cells were harvested on GF™/B filter microplates (microtiter plates with embedded glass fiber from PerkinElmer, Inc.) and washed 5 times with PBS using a Filtermate™ Harvester (a cell harvester that harvests and washes cells from microplates from PerkinElmer, Inc.). The radioactivities bound to the cells were determined using a microplate scintillation counter (TopCount® NXT, from PerkinElmer, Inc.) after adding 50 μL of Microscint™ 20 scintillation fluid (from PerkinElmer, Inc.) to each well of the filter plates. The radioactivity from non-specific binding was determined by replacing compound with 10 μM of 15(R)-15-methyl PGD2 (from Cayman Chemical Company) in the reaction mixtures. The radioactivity bound to the cells in the absence of compound (total binding) was determined by replacing compound with 0.25% of DMSO (dimethyl sulfoxide) in the reaction mixture. Specific binding data were obtained by subtracting the radioactivity of non-specific binding from each binding data.
The IC50 value is defined as the concentration of the tested compound that is required for 50% inhibition of total specific binding. In order to calculate the IC50 value, the percent inhibition data were determined for 7 concentrations for each compound. The percent inhibition for a compound at each concentration was calculated according to the following formula, [1-(specific binding in the presence of compound)/(total specific binding)]×100. The IC50 value was then obtained by fitting the percent inhibition data to a sigmoidal dose-response (4 parameter logistic) model in the XLfit® software Excel add-in program [from ID Business Solutions Ltd., model 205, where F(x)=(A+(B−A)/(1+((C/x)^D)))].
`O=C(O)COc1cccc2c1CCCC2NS(=O)(=O)c1cccc(Oc2ccccc2)c1` (stereo not drawn) [Example 1-3, [5-(3-Phenoxy-benzenesulfonylamino)-5,6,7,8-tetrahydro-naphthalen-1-yloxy]-acetic acid] gave an IC50 of 200 nM.
In the case of `O=C(O)COc1cccc2c1CCC[C@H]2NS(=O)(=O)c1ccc(-c2ccc(O)cc2)cc1` [Example 3-23, [(R)-5-(4′-Hydroxy-biphenyl-4-sulfonylamino)-5,6,7,8-tetrahydro-naphthalen-1-yloxy]-acetic acid], the IC50 is reported as 124 nM.
`CC(C)c1cccc(Oc2ncc(S(=O)(=O)NC3CCCc4c(OCC(=O)O)cccc43)cc2Br)c1` (stereo not drawn) [Example 2-9, {5-[5-Bromo-6-(3-isopropyl-phenoxy)-pyridine-3-sulfonylamino]-5,6,7,8-tetrahydro-naphthalen-1-yloxy}-acetic acid] showed an IC50 of 21.2 nM.
Compound `O=C(O)COc1cccc2c1CCCC2NS(=O)(=O)c1ccc(-c2cc(F)ccn2)cc1` (stereo not drawn) [Example 3-1, {5-[4-(4-Fluoro-pyridin-2-yl)-benzenesulfonylamino]-5,6,7,8-tetrahydro-naphthalen-1-yloxy}-acetic acid] has an IC50 of 55.1 nM.
`Cc1cc(-c2ccc(S(=O)(=O)N[C@@H]3CCCc4c(OCC(=O)O)cccc43)cc2)cc(C(C)(C)C)c1` [Example 3-45, [(R)-5-(3′-tert-Butyl-5′-methyl-biphenyl-4-sulfonylamino)-5,6,7,8-tetrahydro-naphthalen-1-yloxy]-acetic acid] gave an IC50 of 5.9 nM.
For `N#Cc1cccc(Oc2ncc(S(=O)(=O)NC3CCCc4c(OCC(=O)O)cccc43)cc2Br)c1` (stereo not drawn) [Example 2-6, {5-[5-Bromo-6-(3-cyano-phenoxy)-pyridine-3-sulfonylamino]-5,6,7,8-tetrahydro-naphthalen-1-yloxy}-acetic acid], the IC50 was 60.3 nM.
`O=C(O)COc1cccc2c1CCC[C@H]2NS(=O)(=O)c1ccc(-c2cccc([N+](=O)[O-])c2)cc1` [Example 3-41, [(R)-5-(3′-Nitro-biphenyl-4-sulfonylamino)-5,6,7,8-tetrahydro-naphthalen-1-yloxy]-acetic acid] showed an IC50 of 23.9 nM.
With `O=C(O)COc1cccc2c1CCCC2NS(=O)(=O)c1ccc(-c2ccc(OC(F)(F)F)cc2)cn1` (stereo not drawn) [Example 3-62, {5-[5-(4-Trifluoromethoxy-phenyl)-pyridine-2-sulfonylamino]-5,6,7,8-tetrahydro-naphthalen-1-yloxy}-acetic acid] the IC50 was 70.7 nM.
`O=C(O)COc1cccc2c1CCCC2NS(=O)(=O)c1ccc(-c2cccnc2F)cc1` (stereo not drawn) [Example 3-3, {5-[4-(2-Fluoro-pyridin-3-yl)-benzenesulfonylamino]-5,6,7,8-tetrahydro-naphthalen-1-yloxy}-acetic acid] showed an IC50 of 203 nM.
`O=C(O)COc1cccc2c1CCCC2NS(=O)(=O)c1cnc(Oc2ccc(F)cc2Cl)c(Br)c1` (stereo not drawn) [Example 2-1, {5-[5-Bromo-6-(2-chloro-4-fluoro-phenoxy)-pyridine-3-sulfonylamino]-5,6,7,8-tetrahydro-naphthalen-1-yloxy}-acetic acid] showed an IC50 of 76.4 nM.
`O=C(O)COc1cccc2c1CCCC2NS(=O)(=O)c1cnc(Oc2ccc(CCO)cc2)c(Br)c1` (stereo not drawn) [Example 2-22, (5-{5-Bromo-6-[4-(2-hydroxy-ethyl)-phenoxy]-pyridine-3-sulfonylamino}-5,6,7,8-tetrahydro-naphthalen-1-yloxy)-acetic acid] gave an IC50 of 31.7 nM.
Compound `CS(=O)(=O)c1cncc(-c2ccc(S(=O)(=O)NC3CCCc4c(OCC(=O)O)cccc43)cc2)c1` (stereo not drawn) [Example 3-16, {5-[4-(5-Methanesulfonyl-pyridin-3-yl)-benzenesulfonylamino]-5,6,7,8-tetrahydro-naphthalen-1-yloxy}-acetic acid] has an IC50 of 20.3 nM.
`O=C(O)COc1cccc2c1CCCC2NS(=O)(=O)c1cnc(Oc2ccc3c(c2)CCC3)c(Br)c1` (stereo not drawn) [Example 2-17, {5-[5-Bromo-6-(indan-5-yloxy)-pyridine-3-sulfonylamino]-5,6,7,8-tetrahydro-naphthalen-1-yloxy}-acetic acid] gave an IC50 of 115 nM.
Compound `Cc1cccc(-c2ccc(S(=O)(=O)NC3CCCc4c(OCC(=O)O)cccc43)cc2)n1` (stereo not drawn) [Example 3-9, {5-[4-(6-Methyl-pyridin-2-yl)-benzenesulfonylamino]-5,6,7,8-tetrahydro-naphthalen-1-yloxy}-acetic acid] has an IC50 of 74.9 nM.
`O=C(O)COc1cccc2c1CCC[C@H]2NS(=O)(=O)c1ccc(Oc2ccc(Cl)cc2)c(Cl)c1` [Example 2-2, {(R)-5-[3-Chloro-4-(4-chloro-phenoxy)-benzenesulfonylamino]-5,6,7,8-tetrahydro-naphthalen-1-yloxy}-acetic acid] showed an IC50 of 10.2 nM.
Work on `CN(C)C(=O)c1ccc(-c2ccc(S(=O)(=O)N[C@@H]3CCCc4c(OCC(=O)O)cccc43)cc2)cc1` [Example 3-30, [(R)-5-(4′-Dimethylcarbamoyl-biphenyl-4-sulfonylamino)-5,6,7,8-tetrahydro-naphthalen-1-yloxy]-acetic acid] yielded an IC50 of 67.1 nM.
`C[S+]([O-])c1cccc(-c2ccc(S(=O)(=O)N[C@@H]3CCCc4c(OCC(=O)O)cccc43)cc2)c1` (stereo partly drawn) [Example 4-1, [(R)-5-(3′-Methanesulfinyl-biphenyl-4-sulfonylamino)-5,6,7,8-tetrahydro-naphthalen-1-yloxy]-acetic acid] gave an IC50 of 13.5 nM.
`CN([C@@H]1CCCc2c(OCC(=O)O)cccc21)S(=O)(=O)c1cc(C(F)(F)F)cc(S(=O)(=O)c2ccc(Cl)cc2)c1` [Example 8-1, ((R)-5-{[3-(4-Chloro-benzenesulfonyl)-5-trifluoromethyl-benzenesulfonyl]-methyl-amino}-5,6,7,8-tetrahydro-naphthalen-1-yloxy)-acetic acid] was tested, and the IC50 was 2.9 nM.
Compound `Cc1ccc(-c2ccc(S(=O)(=O)N[C@@H]3CCCc4c(OCC(=O)O)cccc43)cc2C)cc1` [Example 3-34, [(R)-5-(2,4′-Dimethyl-biphenyl-4-sulfonylamino)-5,6,7,8-tetrahydro-naphthalen-1-yloxy]-acetic acid] has an IC50 of 157 nM.
For `O=C(O)COc1cccc2c1CCC[C@H]2NS(=O)(=O)c1ccc(-c2ccc(Cl)cc2)cc1` [Example 1-9, [(R)-5-(4′-Chloro-biphenyl-4-sulfonylamino)-5,6,7,8-tetrahydro-naphthalen-1-yloxy]-acetic acid], the IC50 was 84.1 nM.
`Cc1cc(-c2ccc(S(=O)(=O)N[C@@H]3CCCc4c(OCC(=O)O)cccc43)nc2)cc(C(C)(C)C)c1` [Example 3-48, {(R)-5-[5-(3-tert-Butyl-5-methyl-phenyl)-pyridine-2-sulfonylamino]-5,6,7,8-tetrahydro-naphthalen-1-yloxy}-acetic acid] gave an IC50 of 4.8 nM.
`Cc1ccc(-c2ccc(S(=O)(=O)N[C@@H]3CCCc4c(OCC(=O)O)cccc43)cc2)cc1` [Example 1-2, [(R)-5-(4′-Methyl-biphenyl-4-sulfonylamino)-5,6,7,8-tetrahydro-naphthalen-1-yloxy]-acetic acid] showed an IC50 of 51.6 nM.
`CN([C@@H]1CCCc2c(OCC(=O)O)cccc21)S(=O)(=O)c1ccc(Oc2ccc(Cl)cc2)c(Cl)c1` [Example 6-1, ((R)-5-{[3-Chloro-4-(4-chloro-phenoxy)-benzenesulfonyl]-methyl-amino}-5,6,7,8-tetrahydro-naphthalen-1-yloxy)-acetic acid] was tested, and the IC50 was 147 nM.
Compound `COc1ccc(-c2ccc(S(=O)(=O)N[C@@H]3CCCc4c(OCC(=O)O)cccc43)cc2)cc1` [Example 1-8, [(R)-5-(4′-Methoxy-biphenyl-4-sulfonylamino)-5,6,7,8-tetrahydro-naphthalen-1-yloxy]-acetic acid] has an IC50 of 65.9 nM.
